Measured values published in PubChem BioAssay (NCI).
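Where inhibition never reached the appropriate level, the endpoint shown equals the highest concentration tested. Otherwise, values were interpolated linearly from a five-concentration, 48-hour dose response in 96-well plates. TGI: total growth inhibition.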

Key:
Experiment in all cases: inhibition of tumour cell growth, NCI panel, 48 h
[1] = test system: MDA-N
[2] = test system: UACC-257 melanoma
[3] = test system: NCI-H226 lung
[4] = test system: EKVX NSCLC
[5] = test system: BT-549 breast
[6] = test system: DU-145 prostate
[7] = test system: HCT-15 colon
[8] = test system: A549 NSCLC
[9] = test system: NCI-H522 lung
[10] = test system: HS 578T breast
[11] = test system: PC-3 prostate
[12] = test system: MOLT-4 leukemia
[13] = test system: SR leukemia

| Structure (SMILES) | TGI [1] [µM] | TGI [2] [µM] | TGI [3] [µM] | TGI [4] [µM] | TGI [5] [µM] | TGI [6] [µM] | TGI [7] [µM] | TGI [8] [µM] | TGI [9] [µM] | TGI [10] [µM] | TGI [11] [µM] | TGI [12] [µM] | TGI [13] [µM] |
| --- | --- | --- | --- | --- | --- | --- | --- | --- | --- | --- | --- | --- | --- |
| COc1cccc2cc(C(=O)Nc3ccccn3)c(=N)oc12 | > 100 | > 100 | > 100 | > 100 | > 100 | > 100 | > 100 | > 100 | > 100 | > 100 | > 100 | 10.6 | 16.5 |
| CC(=O)OCC(OC(C)=O)C(OC(C)=O)C(OC(C)=O)C(/C=N\Nc1nc2ccccc2c(=O)[nH]1)=N/Nc1nc2ccccc2c(=O)[nH]1 (stereo not given) | > 100 | > 100 | > 100 | > 100 | > 100 | > 100 | > 100 | > 100 | > 100 | > 100 | > 100 | > 100 | > 100 |
| COc1ccccc1NC(=S)Nc1cc(C)ccn1 | > 100 | > 100 | > 100 | > 100 | > 100 | > 100 | > 100 | > 100 | > 100 | > 100 | > 100 | > 100 | > 100 |
| Cn1c2c3c(F)c(F)ccc3nc-2cc2ccccc21 | 15 | 19.7 | 13.4 | 26.8 | 20 | 10.2 | 10.7 | 15.4 | 14.3 | > 100 | 19.4 | > 100 | > 100 |
| CN(C)c1ccc(C2ON=C(c3ccccc3)N2C23CC4CC(CC(C4)C2)C3)cc1 (stereo not given) | > 10 | > 10 | > 10 | > 10 | > 10 | > 10 | > 10 | > 10 | > 10 | > 10 | > 10 | > 10 | > 10 |
| CC1OC(O[C@H]2CC[C@]3(C=O)[C@H]4CC[C@]5(C)[C@H](C6=CC(=O)OC6)CC[C@]5(O)[C@@H]4C=C[C@]3(O)C2)CC(O)C1O (stereo not given in full) | 0.807 | 1.82 | 1.33 | 0.611 | 0.608 | 0.442 | 0.62 | 0.378 | 0.241 | 4.2 | 0.657 | 0.3 | 0.682 |
| NC(=O)C(Nc1ccc(Cl)cc1)c1cc2cc(Br)ccc2nc1Cl (stereo not given) | > 50 | > 50 | > 50 | > 50 | > 50 | > 50 | > 50 | > 50 | > 50 | > 50 | > 50 | > 50 | > 50 |
| O=C(Nc1nc(C23CC4CC(CC(C4)C2)C3)cs1)c1cc2c(ccc3ccccc32)oc1=O | > 100 | > 100 | > 100 | > 100 | > 100 | > 100 | > 100 | > 100 | > 100 | > 100 | > 100 | > 100 | > 100 |
| COCCOCCOCCOc1ccc(C(C#N)N(CCc2ccccc2)C(=O)c2cc(C(=O)N(CCc3ccccc3)C(C#N)c3ccc(OCCOCCOCCOC)cc3)cc(C(=O)N(CCc3ccccc3)C(C#N)c3ccc(OCCOCCOCCOC)cc3)c2)cc1 (stereo not given) | > 100 | > 100 | > 100 | > 100 | > 100 | > 100 | > 100 | > 100 | > 100 | > 100 | > 100 | > 100 | > 100 |
| BrCC(Br)(c1ccccc1)c1ccccc1-c1cc(-c2ccccc2)cc(-c2ccccc2)n1 (stereo not given) | 10.9 | 8.92 | 15.1 | > 100 | 10.1 | > 45.5 | 30 | 25.5 | 10.5 | 26 | 10.6 | 17.3 | > 52.7 |
| Cc1ccc(C)n1-n1c(-c2ccccc2)n[nH]c1=O | 70.8 | > 100 | > 100 | > 100 | > 100 | > 100 | > 100 | > 100 | > 100 | > 100 | > 100 | > 100 | > 100 |
| O=[As](O)(O)c1ccc2nc3cc([As](=O)(O)O)ccc3nc2c1 | > 100 | > 100 | > 100 | > 100 | > 100 | > 100 | > 100 | > 100 | > 100 | > 100 | > 100 | > 100 | > 100 |
| O=C1NC(S(=O)(=O)O)=NNC12c1ccccc1-c1ccccc12 | > 10 | > 10 | > 10 | > 10 | > 10 | > 10 | > 10 | > 10 | > 10 | > 10 | > 10 | > 10 | > 10 |
| CCN(CC)CCNc1ccc(C)c2sc3ccccc3c(=O)c12 | 4.04 | 3.18 | 11.8 | 19.3 | 19.4 | 18.3 | 8.87 | 7.13 | 5.5 | 6.63 | 11.2 | 4.65 | 6.58 |
| COC(=O)c1c(C(=O)OC)c2c3ccccc3n(C)c2c2c1c1ccccc1n2C | > 100 | > 100 | > 100 | > 100 | > 100 | > 100 | > 100 | > 100 | > 100 | > 100 | > 100 | > 100 | > 100 |
